# In US20090275667A1, “USE OF ALLICIN AS PRESERVATIVE, AS DISINFECTANT, AS ANTIMICROBIAL OR AS BIOCIDAL AGENT” (Stone Island Holdings Ltd, priority 2003, published 2009):
# Tests used:
# P. l. larvae = experiment: Minimum bactericidal concentration by plating out MIC cultures; assay type: cell-based, Paenibacillus larvae subsp. larvae; settings: range of 1000 ppm to 25 ppm
# Procedure: Positive controls contained the antibiotic Tylosin (Tylan® 50, Elanco Animal Health Inc., IN) and negative controls contained no antibiotics. Bacterial (P. l. larvae, P. l. pulviphaciens) or fungal (A. apis, A. aggregata) spores (100 μl of approximately 10^8-10^9 spores/ml) were added to a 2.5 ml of bacterial or fungal liquid medium containing serial dilutions of allicin. Cultures were incubated in a shaker at 35° C. and 215 rpm. The optical densities of cultures (OD 600) were recorded 24 h and 48 h post inoculation, depending on the growth rate of the microbial species. […] Minimum bactericidal concentration values (NBC) were determined for allicin by plating out 100 μl of bacterial cultures derived from the MIC assay. Plates were incubated 24 h and 48 h at 33° C. and 6% CO2 to observe microbial growth.
# [1] = system: Escherichia coli (NCTC 8156); experiment: Modified Kelsey-Sykes test; assay type: cell-based; design: key: CG = Confluent growth
# From the text: Allicin can be used to displace or supplement existing harmful forms of disinfectant/biocide such as chlorine, sodium hypochlorite, ozone and per-acetic acid all of which can have an adverse effect on the environment. UV radiation is also used for disinfection but power and general running costs are high. Laboratory studies have been conducted on our behalf using allicin on aqueous suspensions of bacterial species commonly used as indicators of the effectiveness of water and wastewater disinfection. To this effect, identified isolates from the faecal coliform and streptococcus groups, namely, Escherichia coli (NCTC 8156) and Enterococcus hirae (University of Brighton isolate) were used in all experiments. An aqueous solution of allicin with a nominal concentration of allicin of 1.8 g per litre ie a 0.18% solution was used.
# Stock suspensions of Escherichia coli (NCTC 8156) and Enterococcus hirae (University of Brighton isolate) were cultivated in Nutrient Broth No. 2 from freeze dried isolates. Prior to each experiment, serial dilutions of the suspensions were enumerated by the spread plate method on Nutrient Agar and subsequent incubation at 37 deg C.
# Initial experimental procedures were based on the methods set out in an established UK protocol (BS 6905: 1987). The Kelsy-Sykes methodology was developed as a guide to the concentrations of disinfectants which may be recommended for use under “dirty” (wastewater/sewage) conditions. It is therefore a suitable means of establishing the effectiveness of a disinfectant against a wastewater containing particulate and dissolved contaminants in addition to micro-organisms.
# Therefore, with regard to wastewater/sewage considerations, the protocol was adapted. Under the revised methodology, a sample was taken from the bacterial suspension/biocide mix after the prescribed contact time and plated out onto solid media so that a colony count could be made (see Tables 1 and 2).
# Bordetella = experiment: Zones of Inhibition against common chicken bacteria; assay type: cell-based
# [2] = system: Paenibacillus larvae subsp. larvae; experiment: MIC by broth microdilution, bee pathogens; assay type: cell-based; settings: range 1000 ppm to 0.25 ppm
# From the text: (§1) We tested allicia (Allisure™ Liquid) activity against several species of entomopathogenic bacteria (Paenibacillus larvae subsp. larvae, Paenibacillus larvae subsp. pulvifaciens) and fungi (Ascosphaera apis and Ascosphaera aggregata) using broth microdilution method to determine minimum inhibitory concentration (MIC) and the agar diffusion test (Kirby-Bauer) to determine zone of inhibition. Bacterial spores were isolated from the diseased honey bee larval samples. A small aliquot of heat-treated bacterial spores was suspended in 100 μl of phosphate buffered saline-pH 7.2 (PBS) and plated on semi-selective J. Agar medium, containing Nalidixic and Pipemidic acid (Alippi, A M (1995) Detection of Bacillus larvae spores in Argentinian honeys by using a semi-selective medium. Microbiologia 1995 11(3): 343-50; and Govan, V A; Allsopp, M H; Davison, S A (1999) PCR Detection Method for Rapid Identification of Paenibacillus larvae. Applied and Environmental Microbiology 65(5): 2243-2245.
# (§2) The plates were incubated at 33° C. in air containing 6% CO2 and 95% RH. The initial species identification was based on morphological, biological and cultural characteristics. The bacterial culture was tested for a catalase reaction (Leboffe, M. J and Pierce, B e (1999) A photographic atlas for the microbiology laboratory. Morton Publishing Company. 254 pp). The bacterial colonies were characterized by shape, margins and color. Gram-positive stained smears (Gram-stain Reagents Kit, EMD Chemicals Inc., NJ) were examined for morphological identification of vegetative cells and spores.
# (§3) DNA based PCR identification was performed to corroborate identification of the bacterial species. Bacterial cells from culture plates were added directly to 30 μl of PCR reaction. The PCR primers used in the reaction were based on the 16S RNA sequence to selectively amplify a fragment of 973 by unique to P. larvae (Govan et al., 1999). The PCR products were visualized by 0.8% agarose gel electrophoresis in TAE buffer and ethidium bromide staining. The reference strains of bacteria were used as a control in PCR reactions and were provided by the National Center for Agricultural Research, Peoria, Ill. P. l. larvae (NRRL B-3560, B-2605) and P. l. palvifaciens (NRRL B-3688, B-3685, B-3689, NRS-1687, P. alvei B383).
# (§4) Positive controls contained the antibiotic Tylosin (Tylan® 50, Elanco Animal Health Inc., IN) and negative controls contained no antibiotics. […] The optical densities of cultures (OD 600) were recorded 24 h and 48 h post inoculation, depending on the growth rate of the microbial species. […] Minimum bactericidal concentration values (NBC) were determined for allicin by plating out 100 μl of bacterial cultures derived from the MIC assay. […]
# [3] = system: Paenibacillus larvae subsp. pulvifaciens; experiment: MIC by broth microdilution, bee pathogens; assay type: cell-based; settings: range 1000 ppm to 0.25 ppm
# From the text: as §1, §2, §3, §4
# B. laterosporus = experiment: Investigation into bacteriostatic or bactericidal effects (Study 2); assay type: cell-based, Brevibacillus laterosporus; settings: conclusion from subculture into fresh media
# Procedure: Where there was no growth in a replicate, at the end of one week the culture was plated out for single colonies on the appropriate agar. This was to determine whether the test item had bactericidal activity, where all the bacterial cells are killed, or bacteriostatic action, where the cells are unable to replicate in the presence of the substance, but will grow when it is removed. A further test, where 0.5 ml of the broth was transferred into 4.5 ml fresh broth (giving a 1:10 dilution) was also undertaken. There would still be some Allicin in the broth, but it should be present at a low enough concentration for growth not to be affected. Where growth occurred in the absence of Allicin, the broth was examined microscopically and plated out for single colonies to confirm the identity of the bacterium.
# [4] = allicin conc. 0.9 % (w/v), 10 mins
# [5] = allicin conc. 0.9 % (w/v), 20 mins
# [6] = allicin conc. 0.9 % (w/v), 30 mins
# [7] = allicin conc. 1.08 % (w/v), 10 mins
# [8] = allicin conc. 1.08 % (w/v), 20 mins
# [9] = allicin conc. 1.26 % (w/v), 10 mins
# [10] = allicin conc. 1.26 % (w/v), 20 mins
# [11] = allicin conc. 1.62 % (w/v), 10 mins
# [12] = allicin conc. 1.62 % (w/v), 20 mins
smiles,measurement,setting,value
"C=CCS[S+]([O-])CC=C (centres unmarked) [allicin, Allicin]",bacteriostatic or bactericidal activity,P. l. larvae,only bacteriostatic (no bactericidal) activity
same,Numbers of colony forming units killed,[1]; [4],CG
same,Percentage reduction in colony forming units,[1]; [4],CG
same,Numbers of colony forming units killed,[1]; [5],CG
same,Percentage reduction in colony forming units,[1]; [5],CG
same,Numbers of colony forming units killed,[1]; [6],CG
same,Percentage reduction in colony forming units,[1]; [6],CG
same,Numbers of colony forming units killed,[1]; [7],CG
same,Percentage reduction in colony forming units,[1]; [7],CG
same,Numbers of colony forming units killed,[1]; [8],CG
same,Percentage reduction in colony forming units,[1]; [8],CG
same,Percentage reduction in colony forming units,"[1]; allicin conc. 1.08 % (w/v), 30 mins",94%
same,Numbers of colony forming units killed,[1]; [9],CG
same,Percentage reduction in colony forming units,[1]; [9],CG
same,Numbers of colony forming units killed,[1]; [10],CG
same,Percentage reduction in colony forming units,[1]; [10],CG
same,Percentage reduction in colony forming units,"[1]; allicin conc. 1.26 % (w/v), 30 mins",97%
same,Percentage reduction in colony forming units,"[1]; allicin conc. 1.4 % (w/v), 10 mins",CG
same,Percentage reduction in colony forming units,"[1]; allicin conc. 1.4 % (w/v), 20 mins",CG
same,Percentage reduction in colony forming units,"[1]; allicin conc. 1.4 % (w/v), 30 mins",89%
same,Numbers of colony forming units killed,"[1]; allicin conc. 1.44 % (w/v), 10 mins",CG
same,Numbers of colony forming units killed,"[1]; allicin conc. 1.44 % (w/v), 20 mins",CG
same,Numbers of colony forming units killed,[1]; [11],CG
same,Percentage reduction in colony forming units,[1]; [11],CG
same,Numbers of colony forming units killed,[1]; [12],CG
same,Percentage reduction in colony forming units,[1]; [12],CG
same,Percentage reduction in colony forming units,"[1]; allicin conc. 1.62 % (w/v), 30 mins",83%
same,zone of inhibition at 166 ppm,Bordetella; 166 ppm (1:6 dilution),18 mm
same,zone of inhibition at 1000 ppm,Bordetella; 1000 ppm,36 mm
same,MIC,[2],350 µg/mL
same,MIC,[3],350 µg/mL
same,bacteriostatic or bactericidal effect,B. laterosporus,did not kill all bacteria
